ChEMBL document CHEMBL5303304, “EUbOPEN Chemogenomics Library - IncuCyte” (2023)

Experiments:
Type in all cases: toxicity, cell-based
U2OS = test: Incucyte cell viability with U2OS; conditions: human, 10 µM, compound concentration 10 uM
HEK-293T = test: Incucyte cell viability with HEK293T; conditions: human, 10 µM, compound concentration 10 uM
Fibroblast = test: Incucyte cell viability with human fibroblast; conditions: 10 µM, compound concentration 10 uM
Further: unitless GR value; below 1 slowed growth and below 0 cell loss.

SMILES	Growth Rate (U2OS; 0 h, replicate number 1)	Growth Rate (U2OS; 0 h, replicate number 2)	Growth Rate (U2OS; 6 h, replicate number 2)	Growth Rate (U2OS; 12 h, replicate number 1)	Growth Rate (U2OS; 12 h, replicate number 2)	Growth Rate (HEK-293T; 0 h, replicate number 2)	Growth Rate (Fibroblast; 0 h, replicate number 1)	Growth Rate (Fibroblast; 6 h, replicate number 2)	Growth Rate (Fibroblast; 12 h, replicate number 2)	Growth Rate (U2OS; 18 h, replicate number 1)	Growth Rate (U2OS; 18 h, replicate number 2)	Growth Rate (U2OS; 24 h, replicate number 1)	Growth Rate (U2OS; 24 h, replicate number 2)	Growth Rate (HEK-293T; 0 h, replicate number 1)	Growth Rate (Fibroblast; 6 h, replicate number 1)	Growth Rate (Fibroblast; 12 h, replicate number 1)	Growth Rate (Fibroblast; 18 h, replicate number 2)	Growth Rate (Fibroblast; 24 h, replicate number 2)	Growth Rate (HEK-293T; 12 h, replicate number 2)	Growth Rate (HEK-293T; 6 h, replicate number 2)	further results
CNC(=O)c1ccc(C)c(-n2c(C)cc(OCc3ccc(F)cc3F)c(Br)c2=O)c1 [PH-797804]	-0.97	0.65	0.54	0.91	0.75	0.72	-0.91	0.91	0.99	–	–	–	–	–	–	–	–	–	–	–	–
CCCCCCCCCCCCCC(=O)O[C@@H]1[C@@H](C)[C@@]2(O)[C@@H](C=C(CO)C[C@]3(O)C(=O)C(C)=C[C@@H]23)[C@@H]2C(C)(C)[C@]12OC(C)=O [PHORBOL MYRISTATE ACETATE]	–	-1	–	0.98	–	-0.1	–	-1	0.09	0.96	0.92	0.96	0.72	0.64	0.89	-1	0.85	0.78	–	–	Growth Rate (HEK-293T; 18 h, replicate number 2): 0.99; Growth Rate (HEK-293T; 24 h, replicate number 2): 0.75; Growth Rate (Fibroblast; 0 h, replicate number 2): -0.74
Cc1noc(C)c1-c1cnc2c(-c3ccc(C(=O)O)cc3)cn([C@@H](C)c3ccccn3)c2c1 [PLX-51107]	-0.72	-0.91	–	0.94	–	–	-0.53	-0.59	0.35	–	–	0.93	1	0.25	–	-0.99	0.36	0.49	0.89	–	Growth Rate (U2OS; 6 h, replicate number 1): 0.16; Growth Rate (HEK-293T; 18 h, replicate number 2): 0.62; Growth Rate (HEK-293T; 24 h, replicate number 1): 0.93; Growth Rate (HEK-293T; 24 h, replicate number 2): 0.48; Growth Rate (Fibroblast; 0 h, replicate number 2): -0.82; Growth Rate (Fibroblast; 18 h, replicate number 1): -0.39; Growth Rate (Fibroblast; 24 h, replicate number 1): -0.1
O=C(N[C@H]1CN2CCC1CC2)c1ccc(Cl)cc1 [PNU-282987]	–	-0.61	0.78	0.84	–	–	–	-0.01	0.79	0.75	0.8	0.94	0.86	–	-0.45	–	0.85	0.81	0.94	0.88	Growth Rate (HEK-293T; 24 h, replicate number 2): 1
CC1(C)CCC[C@]2(C)[C@@H](C=O)C(C=O)=CC[C@@H]12 [POLYGODIAL]	0.45	-0.79	0.73	–	0.57	–	–	-1	0.42	–	0.76	–	0.88	–	–	–	0.83	0.73	0.7	0.55	Growth Rate (HEK-293T; 6 h, replicate number 1): -0.32; Growth Rate (HEK-293T; 12 h, replicate number 1): 0.22; Growth Rate (HEK-293T; 18 h, replicate number 1): 0.52; Growth Rate (HEK-293T; 18 h, replicate number 2): 0.81; Growth Rate (HEK-293T; 24 h, replicate number 1): 0.8; Growth Rate (HEK-293T; 24 h, replicate number 2): 0.87; Growth Rate (Fibroblast; 18 h, replicate number 1): -0.77; Growth Rate (Fibroblast; 24 h, replicate number 1): 0.41
CC(C)[C@H](CO)Nc1nc(Nc2ccc(C(=O)O)c(Cl)c2)c2ncn(C(C)C)c2n1 [PURVALANOL B]	-0.96	0.8	0.56	–	0.95	–	-0.93	–	–	–	–	–	–	–	–	–	–	–	–	–	Growth Rate (HEK-293T; 18 h, replicate number 1): 0.9; Growth Rate (HEK-293T; 24 h, replicate number 1): 1; Growth Rate (Fibroblast; 18 h, replicate number 1): 0.88
C=C[C@H]1C[N@@]2CC[C@H]1C[C@@H]2[C@@H](O)c1ccnc2ccc(OC)cc12 [QUINIDINE]	–	-1	-0.07	0.59	0.65	–	-0.43	0.17	0.9	0.93	0.73	0.96	0.83	–	0.36	-1	1	0.74	–	0.85	–
c1ccc2nc(N3CCNCC3)ccc2c1 [QUIPAZINE]	-0.85	–	0.58	0.55	–	–	0.15	0.04	0.92	0.94	–	–	–	–	0.27	-0.91	0.72	0.58	0.95	0.5	Growth Rate (HEK-293T; 6 h, replicate number 1): 0.43; Growth Rate (Fibroblast; 0 h, replicate number 2): 0.79; Growth Rate (Fibroblast; 18 h, replicate number 1): 0.52; Growth Rate (Fibroblast; 24 h, replicate number 1): 0.85
O=C(Nc1ccc(Oc2ccc(Cl)cc2)c(Cl)c1)c1cc(I)cc(I)c1O [RAFOXANIDE]	0.6	-1	–	0.92	0.74	–	–	–	–	0.88	–	–	–	–	-0.56	-1	–	–	0.91	0.49	Growth Rate (U2OS; 6 h, replicate number 1): 0.57; Growth Rate (HEK-293T; 6 h, replicate number 1): -0.37; Growth Rate (HEK-293T; 12 h, replicate number 1): -0.61; Growth Rate (HEK-293T; 18 h, replicate number 1): -0.55; Growth Rate (HEK-293T; 24 h, replicate number 1): -0.48; Growth Rate (Fibroblast; 0 h, replicate number 2): -0.93
O=C(O)CCn1c2c(c3ccccc31)C[C@H](NS(=O)(=O)c1ccc(F)cc1)CC2 [RAMATROBAN]	0.53	–	–	–	–	0.04	–	–	0.99	–	–	–	–	0.1	–	–	0.89	0.74	–	–	Growth Rate (U2OS; 6 h, replicate number 1): 0.88
CCOc1cc(CC(=O)N[C@@H](CC(C)C)c2ccccc2N2CCCCC2)ccc1C(=O)O [REPAGLINIDE]	–	–	–	–	0.94	0.8	–	–	0.38	–	0.96	0.99	–	0.91	–	–	0.61	0.86	–	–	–
CCN(C(=O)c1cc(F)ccc1Oc1cncnc1N1CC2(CCN(C[C@H]3CC[C@H](NS(=O)(=O)CC)CC3)CC2)C1)C(C)C [REVUMENIB]	0.19	0.45	0.45	0.8	0.79	0.43	–	0.81	–	0.77	0.76	0.76	0.67	-0.33	0.15	0.94	0.88	0.93	0.53	0.24	Growth Rate (U2OS; 6 h, replicate number 1): 0.62; Growth Rate (HEK-293T; 18 h, replicate number 2): 0.48; Growth Rate (HEK-293T; 24 h, replicate number 2): 0.38; Growth Rate (Fibroblast; 0 h, replicate number 2): 0.3; Growth Rate (Fibroblast; 18 h, replicate number 1): 0.79; Growth Rate (Fibroblast; 24 h, replicate number 1): 0.88
COc1ccc(F)c(F)c1C(=O)c1cnc(NC2CCN(S(C)(=O)=O)CC2)nc1N [RG-547]	-1	0.68	0.23	0.73	0.02	0.15	-1	0.62	0.53	0.18	0.02	0.06	-0.11	-1	–	–	0.28	0.15	-0.5	-0.37	Growth Rate (HEK-293T; 6 h, replicate number 1): 0.16; Growth Rate (HEK-293T; 12 h, replicate number 1): -0.1; Growth Rate (HEK-293T; 18 h, replicate number 1): -0.15; Growth Rate (HEK-293T; 18 h, replicate number 2): -0.47; Growth Rate (HEK-293T; 24 h, replicate number 1): -0.13; Growth Rate (HEK-293T; 24 h, replicate number 2): -0.37; Growth Rate (Fibroblast; 0 h, replicate number 2): 0.02; Growth Rate (Fibroblast; 18 h, replicate number 1): 0.96; Growth Rate (Fibroblast; 24 h, replicate number 1): 0.65
C=CC(=O)Nc1ccc2[nH]c(=O)n(C3CCN(Cc4ccc(-c5ccc6c(c5)NC(=O)CO6)cc4)CC3)c2c1 [RL2578]	0.69	–	–	0.76	0.91	–	-1	0.95	0.71	0.75	0.78	0.93	0.62	–	0.84	0.87	0.52	0.51	0.43	0.23	Growth Rate (U2OS; 6 h, replicate number 1): 0.83; Growth Rate (HEK-293T; 6 h, replicate number 1): 0.24; Growth Rate (HEK-293T; 12 h, replicate number 1): 0.24; Growth Rate (HEK-293T; 18 h, replicate number 1): 0.28; Growth Rate (HEK-293T; 18 h, replicate number 2): 0.45; Growth Rate (HEK-293T; 24 h, replicate number 1): 0.26; Growth Rate (HEK-293T; 24 h, replicate number 2): 0.42; Growth Rate (Fibroblast; 18 h, replicate number 1): 0.72; Growth Rate (Fibroblast; 24 h, replicate number 1): 0.45
N#CC[C@H](C1CCCC1)n1cc(-c2ncnc3[nH]ccc23)cn1 [RUXOLITINIB]	-1	–	–	–	–	-0.15	-1	–	–	–	–	–	–	-0.91	–	–	–	–	–	–	Growth Rate (HEK-293T; 6 h, replicate number 1): 0.27; Growth Rate (HEK-293T; 12 h, replicate number 1): 0.86
Oc1ccc(-c2nc(-c3ccncc3)c(-c3ccc(F)cc3)[nH]2)cc1 [SB-202190]	-0.88	-0.95	–	–	–	-0.17	–	–	0.62	–	–	–	–	0	0.11	-0.11	–	–	–	–	Growth Rate (Fibroblast; 0 h, replicate number 2): -0.18
